# Experimental data as given in patent US8349368B2, “Compositions and methods for treating vaginal infections and pathogenic vaginal biofilms” (priority 2007, dated 2013).
# Entries after “also recorded” stand apart in the source; their conditions may differ.
# Experiments:
# recurrent BV = system: recurrent BV
# Protocol: A retrospective case review was conducted of the use of boric acid in a series of patients with recurrent BV. Boric acid was employed as an antimicrobial agent as part of a 6-month sequential treatment protocol.
# With the exception of boric acid, all of the other antimicrobials used were FDA approved for BV. The 6-month protocol was as follows: • 1. Induction: oral metronidazole or tinidazole twice daily for 7-10 days • 2. Boric acid treatment: 600-mg gelatin capsule inserted vaginally daily for 21 days • 3.
# [1] = system: clinical isolates of C. albicans as well as non-albicans species; details: literature (Shubair 1990; Prutting 1998); cited from earlier work
# [2] = system: common bacterial pathogens; details: literature (Meers 1990); cited from earlier work
# C. albicans = assay: planktonic MIC, standard MIC methodologies; details: Candida albicans, read-out: planktonic MIC
# G. vaginalis = assay: planktonic MIC, standard MIC methodologies; assay type: cell-based, G. vaginalis ATCC #14018; details: Gardnerella vaginalis
# Protocol: (§1) As a prelude to the biofilm experiments, the planktonic (i.e., free-floating vs. biofilm-associated) MIC values for boric acid and EDTA against both test organisms were established utilizing standard MIC methodologies. In contrast to C. albicans, the planktonic MIC values for boric acid and EDTA against G. vaginalis had not previously been reported.
# (§2) In preparation of the biofilm experiments relating to the invention, overnight cultures of C. albicans and G. vaginalis were prepared by adding 1 mL frozen stock to 9 mL growth media (either G. vaginalis ATCC #14018 in 50% BHI broth+1% starch, or C. albicans ATCC #96113 in 50% SD broth+1% sucrose) and incubated for 24 hours at 37° C., C. albicans was grown under atmospheric conditions while G. vaginalis was grown with the addition of 5% CO2.
# (§3) Next, the 24 biofilm-covered coupons were aseptically removed from the CDC reactor and placed in a 24-well plate, with each well containing 2 mL of test solution. The test solutions were run in triplicate and included varied concentrations of boric acid (BA) and EDTA or a combination thereof. […] Fluconazole at a concentration of 8 μg/mL was selected as the treatment control for C. albicans.
# G. vaginalis biofilm = assay: biofilm disruption in CDC biofilm reactor; assay type: cell-based, G. vaginalis ATCC #14018; details: metronidazole 192 μg/mL, 24-hour treatment
# Protocol: as §1, §2, §3
# G. vaginalis isolates = details: conventional planktonic MIC testing; cited from earlier work
# BV biofilm = details: oral 500 mg twice daily for 7 days, cited from earlier work
# [3] = including vaginal secretions and tissues; oral dosing, maximum daily dose 400 mg; cited from earlier work
smiles,measurement,setting,value
OB(O)O [boric acid],treatment failures during boric acid therapy,recurrent BV; 600-mg vaginal capsule daily for 21 days,none of the treatment failures occurred during boric acid therapy
same,patients remaining cured,recurrent BV; at 9 months (3 months after maintenance),Sixty-seven
same,patients clinically cured (asymptomatic and negative for Amsel's criteria),"recurrent BV; end of 6 months, nitroimidazole induction, boric acid 600 mg vaginally daily 21 days, metronidazole gel maintenance, 24/31",77%
same,secondary yeast infection or discontinuation because of adverse event or intolerance,recurrent BV; in vivo,none of the patients experienced a secondary yeast infection or discontinued
same,median duration of remission,recurrent BV; retrospective case series,8.7 months
same,antifungal activity in vitro,[1],weakly fungistatic
same,antibacterial activity in vitro,[2],bacteriostatic activity
same,MIC,C. albicans,1560 µg/mL
same,MIC,G. vaginalis,3120 µg/mL
Cc1ncc([N+](=O)[O-])n1CCO [metronidazole],effect of active control on G. vaginalis biofilm,G. vaginalis biofilm,little impact; also recorded: minimal impact
same,susceptibility of G. vaginalis isolates,G. vaginalis isolates,good susceptibility
same,MIC,G. vaginalis,128 µg/mL
same,vaginal biopsy result (fluorescent in situ hybridization),BV biofilm; G. vaginalis and Atopobium,persistent accumulation of core pathogenic bacteria
same,clinical response by standard clinical and microbiologic methods,BV biofilm; each time point,resolution of BV
"OC(Cn1cncn1)(Cn1cncn1)c1ccc(F)cc1F [fluconazole, Fluconazole]",drug levels achieved in biologic fluids and tissues,[3],4.12-8.08 μg/mL
"O=C(O)CN(CCN(CC(=O)O)CC(=O)O)CC(=O)O [EDTA, ethylene-diamine-tetra-acetic acid]",MIC,C. albicans,780 µg/mL
same,MIC,G. vaginalis,190 µg/mL
